Reference: patent US20130059096A1, “METHODS AND COATINGS FOR TREATING BIOFILMS” (President and Fellows of Harvard College, priority 2010, published 2013)
Where two headings read alike, the source gives them in different places. Values belong to the compound of their own block, whether it stands above or below them.

What was measured:
[1] = test system: Bacillus subtilis NCIB3610; assay: Pellicle (biofilm) formation in liquid biofilm-inducing medium; type: cell-based; settings: for Biofilm-inhibition assay for B. subtilis: summary statement, concentration not given; for Inhibition of biofilm formation (FIG. 5): MSgg medium; for minimum concentration (MIC for Minimal Inhibitory Concentration) needed to prevent biofilm formation: FIG. 2B, complete inhibition of pellicle formation
Description: (§1) Colony and pellicle formation. For colony formation on solid medium, cells were first grown to exponential growth phase in LB broth and 3 μl of culture were spotted onto solid MSgg medium containing 1.5% Bacto agar. The plates were incubated at 23° C. For pellicle formation in liquid medium, cells were grown to exponential phase and 6 μl of culture were mixed with 6 ml of medium in a 12-well plate (VWR). Plates were incubated at 23° C. Images of colonies and pellicles were taken using a SPOT camera (Diagnostic Instruments, USA).
Preparing conditioned medium. Cells were grown in LB medium to exponential phase. 0.1 ml of culture was added to 100 ml of MSgg medium and grown without shaking in a 500 ml beaker at 23° C. Next, pellicles and conditioned medium was collected by centrifugation at 8,000 rpm for 15 min. The conditioned medium (supernatant fluid) was removed and filtered through a 0.22 μm filter. The filtrates were stored at 4° C. For further purification the biofilm-inhibiting activity was fractionated on a C-18 Sep Pak cartridge using stepwise elution of 0% to 100% methanol with steps of 5%.
To investigate whether mature biofilms produce a factor that triggers biofilm disassembly, the effect of concentrated and partially purified extracts of conditioned medium on pellicle formation when added to fresh medium was assayed. To this end, conditioned medium from an eight-day-old culture was applied to a C18 Sep Pak column. Concentrated eluate from the column was then added to a freshly inoculated culture. […] Further purification of the factor was achieved by eluting the cartridge in step-wise fashion with increasing concentrations of methanol.
Next, the minimum concentration (MIC for Minimal Inhibitory Concentration) needed to prevent biofilm formation was determined.

[2] = test system: Pseudomonas aeruginosa PA14; assay: Biofilm formation on polystyrene, crystal violet staining; type: cell-based; settings: Pseudomonas aeruginosa, read-out: % Inhibition relative to control (0%, <50%, 50-90%, >90%)
Description: Crystal violet staining Crystal violet staining was done as described previously (O'Toole et al., Mol. Microbiol. 30:295 (1998)) except that the cells were grown in 6-well plates. Wells were stained with 500 μl of 1.0% Crystal-violet dye, rinsed twice with 2 ml double-distilled water and thoroughly dried.
P. aeruginosa strain […] was grown in 12-well polystyrene plates for 48 hours at 30° C. in M63 medium containing glycerol (0.2%) and Casamino acids (20 μg/ml). Additionally added to the wells were no amino acids (untreated), D-tyrosine or the D-amino acid equimolar mixture. Cells bound to the polystyrene were visualized by washing away unbound cells and then staining with crystal violet. Wells were stained with 500 μl of 1.0% Crystal-violet dye, rinsed twice with 2 ml double-distilled water and thoroughly dried.
(§2) For experiments reported in Table 1, the organism/strain was S.a. Harvard SCO1, the culture medium was TSB and the cell inoculation was at 2×10^9 cfu. For experiments reported in Table 2, the organism/strain was […], the culture medium was M63 and the cell inoculation was at 1.5×10^9 cfu. Biofilm was visualized using the crystal violet method.

S. aureus (strain SCO1) = assay: as above; type: cell-based, Staphylococcus aureus; settings: Staphylococcus aureus, read-out: % Inhibition relative to control (0%, <50%, 50-90%, >90%)
Description: Crystal violet staining Crystal violet staining was done as described previously (O'Toole et al., Mol. […] Wells were stained with 500 μl of 1.0% Crystal-violet dye, rinsed twice with 2 ml double-distilled water and thoroughly dried.
The effect of D-amino acids on biofilm formation by other bacteria was examined. The pathogenic bacterium Staphylococcus aureus forms biofilms on plastic surfaces (Otto, Curr. Top. Microbiol. Immunol. 322:207 (2008)), which can be detected by washing away unbound cells and staining the bound cells with crystal violet. […] Additionally added to the wells were no amino acids (untreated), D-tyrosine (50 μM) or the D-amino acid mixture ([…] each). Cells bound to the polystyrene were visualized by washing away unbound cells and then staining with crystal violet.
as §2, with “method. The data is shown below in Tables 1 and 2:” for “method.”
For experiments reported in Tables 3 and 4, the organism/strain was S.a. Harvard SCO1, the culture medium was TSB and the cell inoculation was at 2×10^9 cfu. Biofilm was visualized using the crystal violet method.

P.a. Harvard PA14 = assay: Biofilm (colony architecture) formation on defined M63 medium; type: cell-based, Pseudomonas aeruginosa; settings: 500 μM
From the text: Similarly to Bacillus subtilis, Pseudomonas aeruginosa forms a complex architecture on defined medium. These complex structures require the proper formation and assembly of the extra-cellular matrix. […] For these experiments, the organism/strain was P.a. Harvard PA14, the culture medium was M63 and the cell inoculation was at 1.5×10^9 cfu.

[3] = test system: Bacillus subtilis NCIB3610; assay: Colony biofilm formation on solid MSgg medium; type: cell-based; settings: 8.5 mM, 4 days
Description: as §1

Bacillus subtilis = assay: Cell growth in MSgg medium with shaking; type: cell-based; settings: 8.5 mM
[4] = test system: matrix operons eps and yqxM; assay: Expression of PyqxM-lacZ and PepsA-lacZ (β-galactosidase activity); type: cell-based, Bacillus subtilis; settings: 8.5 mM, strains FC122 and FC5, MSgg, shaking
Description: Assays of β-galactosidase activity. Cells were cultured in MSgg medium at 37° C. in a water bath with shaking 1 ml of culture was collected at each time point. β-galactosidase activity was determined as described previously (Chai et al., Mol. Microbiol. 67:254 (2008)).

Pseudomonas aeruginosa = assay: Attached single cells in well plate, Syto-9 staining; type: cell-based; settings: Pseudomonas aeruginosa, 12 h, read-out: % Inhibition relative to control (0%, <50%, 50-90%, >90%)
Description: An alternative method to observe biofilm formation on a 6 well plate with or without D-amino acids and using Syto-9 staining was as follows: Pseudomonas aeruginosa biofilms were washed twice with PBS and then fixed for at least an hour in 5% Glutaraldehyde in PBS. The fixed biofilms were then rinsed once again with PBS and soaked in 0.1% v/v Triton X-100 in PBS (PBST) for 15 minutes. The solution was exchanged with 0.1 nM […] (Invitrogen) in cold PBST and gently rocked in the dark for at least 15 minutes. Fluorescence images of the biofilms were captured with a Leica DMRX compound microscope using a Xe lamp and a K3 Leica filtercube. […] The amount of attached single cells was quantified using image J. The decrease in the amount of cells attached to the epoxy surfaces soaked with D-aa compared with the L-aa control was substantially more.

[5] = PA14, Table 2, 100 nM, 48 h/30° C., polystyrene, M63
[6] = Table 1, 100 nM, 24 h/37° C., polystyrene, TSB
[7] = Table 1, 10 μM, 24 h/37° C., polystyrene, TSB
[8] = Table 1, 100 μM, 24 h/37° C., polystyrene, TSB
[9] = Table 1, 500 μM, 24 h/37° C., polystyrene, TSB
[10] = Table 3, 10 μM, 24 h/37° C., polystyrene, TSB
[11] = Table 3, 100 μM, 24 h/37° C., polystyrene, TSB
[12] = Table 3, 500 μM, 24 h/37° C., polystyrene, TSB

SMILES: C[C@@H](N)C(=O)O [D-alanine]
- Biofilm-inhibition assay for B. subtilis [1]: not effective

- minimum concentration (MIC for Minimal Inhibitory Concentration) needed to prevent biofilm formation [1]: around 1 mM
SMILES: CSCC[C@@H](N)C(=O)O [D-methionine]
- Inhibition of biofilm formation (FIG. 5) ([1]; 2 mM, 3 days): active in inhibiting biofilm formation
- Biofilm-inhibition assay for B. subtilis [1]: significant inhibition of biofilm growth
- inhibition at 0.1 µM [2, 5]: 0%
- inhibition at 0.1 µM (S. aureus (strain SCO1); [6]): 0%
- inhibition at 10 µM (S. aureus (strain SCO1); [7]): 0%
- inhibition at 100 µM (S. aureus (strain SCO1); [8]): 0%
- inhibition at 500 µM (S. aureus (strain SCO1); [9]): 0%

SMILES: CSCC[C@H](N)C(=O)O [L-methionine, reference compound]
- Inhibition of biofilm formation (FIG. 5) ([1]; 5 mM, 3 days): Only the D-amino acids were active

SMILES: N[C@@H](Cc1c[nH]c2ccccc12)C(=O)O [L-tryptophan, reference compound]
- Inhibition of biofilm formation (FIG. 5) ([1]; 5 mM, 3 days): Only the D-amino acids were active
- Biofilm formation on defined medium (FIG. 20) (P.a. Harvard PA14): did not

SMILES: N[C@H](Cc1c[nH]c2ccccc12)C(=O)O [D-tryptophan]
- Inhibition of biofilm formation (FIG. 5) ([1]; 0.5 mM, 3 days): active in inhibiting biofilm formation
- minimum concentration (MIC for Minimal Inhibitory Concentration) needed to prevent biofilm formation [1]: around 1 mM
- Biofilm-inhibition assay for B. subtilis [1]: significant inhibition of biofilm growth
- Biofilm formation on defined medium (FIG. 20) (P.a. Harvard PA14): inhibited biofilm formation
- inhibition at 0.1 µM ([2]; PA14, 48 h): 0%
- inhibition at 10 µM ([2]; PA14, 48 h): < 50%
- inhibition at 100 µM ([2]; PA14, 48 h): 50 to 90%
- inhibition at 500 µM ([2]; PA14, 48 h): 50 to 90%
- inhibition at 0.1 µM (S. aureus (strain SCO1); 24 h): 0%
- inhibition at 10 µM (S. aureus (strain SCO1); 24 h): 0%
- inhibition at 100 µM (S. aureus (strain SCO1); 24 h): < 50%
- inhibition at 500 µM (S. aureus (strain SCO1); 24 h): < 50%

SMILES: CC(C)C[C@@H](N)C(=O)O [D-leucine]
- Effect on pellicle formation (FIG. 2A) ([1]; 8.5 mM, freshly inoculated culture, biofilm-inducing medium, 3 days): significant inhibition of biofilm growth
- minimum concentration (MIC for Minimal Inhibitory Concentration) needed to prevent biofilm formation [1]: around 1 mM
- Biofilm-inhibition assay for B. subtilis [1]: significant inhibition of biofilm growth
- Biofilm formation on solid MSgg medium (FIG. 6) [3]: inhibited biofilm formation
- Cell growth (FIG. 8) (Bacillus subtilis): substantially the same as the untreated sample
- inhibition at 0.1 µM [2, 5]: 0%
- inhibition at 10 µM ([2]; PA14, Table 2, 10 μM, 48 h/30° C., polystyrene, M63): 0%
- inhibition at 100 µM ([2]; PA14, Table 2, 100 μM, 48 h/30° C., polystyrene, M63): 0%
- inhibition at 500 µM ([2]; PA14, Table 2, 500 μM, 48 h/30° C., polystyrene, M63): 0%
- yqxM and eps expression (FIG. 9A, 9B) [4]: substantially the same as the untreated sample
- inhibition at 0.1 µM (S. aureus (strain SCO1); [6]): 0%
- inhibition at 10 µM (S. aureus (strain SCO1); [7]): 0%
- inhibition at 100 µM (S. aureus (strain SCO1); [8]): 0%
- inhibition at 500 µM (S. aureus (strain SCO1); [9]): 0%

SMILES: O=C(O)[C@H]1CCCN1 [D-proline]
- inhibition at 10 µM (S. aureus (strain SCO1); [10]): < 50%
- inhibition at 100 µM (S. aureus (strain SCO1); [11]): < 50%
- inhibition at 500 µM (S. aureus (strain SCO1); [12]): > 90%
- inhibition at 1000 µM (S. aureus (strain SCO1); Table 3, 1 mM, 24 h/37° C., polystyrene, TSB): > 90%

SMILES: N[C@H](Cc1ccccc1)C(=O)O [D-phenylalanine]
- Biofilm-inhibition assay for B. subtilis [1]: not effective
- inhibition at 10 µM (S. aureus (strain SCO1); [10]): < 50%
- inhibition at 100 µM (S. aureus (strain SCO1); [11]): < 50%
- inhibition at 500 µM (S. aureus (strain SCO1); [12]): > 90%

SMILES: N[C@@H](Cc1ccc(O)cc1)C(=O)O [L-tyrosine, reference compound]
- Biofilm formation on defined medium (FIG. 20) (P.a. Harvard PA14): did not
- inhibition at 500 µM (Pseudomonas aeruginosa): 0%
